Test system: M-Rezeptoren der Bronchien, des Herzens und der Harnblase
Test: Effect on M receptors of bronchi, heart and urinary bladder of anaesthetised guinea pigs (acetylcholine-induced bronchoconstriction, bradycardia, bladder tension)
Assay type: in vivo, Meerschweinchen
Source text: 1. Wirkung auf M-Rezeptoren der Bronchien, des Herzens und der Harnblase anaesthetisierter Meerschweinchen
Meerschweinchen beiderlei Geschlechts (550-600 g Körpergewicht) wurden mit Urethan (1,4 gikg, i.p.) anaesthetisiert. Eine Kanüle wurde zur Injektion der Wirkstoffe in die Jugularvene eingeführt. 220 1.U."kg Heparin wurden intravenös injiziert. Es wurde eine Kanüle in die Trachea eingeführt; die Tiere wurden künstlich mit sauerstoffangereicherter Luft mittels einer positiven Druckpumpe (Braun-Melsungen) bei einer Rate von 80 Schlägen pro Minute beatmet. Ein Ast der Trachealkanüle wurde mit einem Wassermanometer von 10 cm Höhe verbunden. Das Beatmungsvolumen wurde so eingestellt, daß der maximale intratracheale Druck während der Beatmung gerade den Druck einer 10 cm-Wassersäule erreichte.
Die Werte wurden mit einem IFD Aufnahmegerät registriert. Vor dem Versuch wurde die Trachea für eine kurze Zeit abgeklemmt, um den maximal möglichen Grad der Bronchokonstriktion zur Kalibrierung zu erzeugen. […] Die Herzfrequenz wurde mit einem Frequenzmesser, der durch arterielle Pulswellen ausgelöst wird, gemessen.
Es wurde ein kleiner medianer Bauchschnitt gesetzt und die Harnblase an einem Kraft-Transducer unter einer Ruhespannung von 1 Gramm angebunden.
Die zu testenden Wirksubstanzen wurden über die Jugularvene injiziert, 5 Minuten später wurde die Spannungszunahme der Blase (in Gramm), der Bronchialwiderstand (in %) und die Abnahme der Herzfrequenz (Schläge pro Minute) nach Gabe von Acetylcholin (50 ug/kg i.v. und i.a.) gemessen. Es wurden dosis-abhängige Kurven durch Wiedergabe der prozentualen Hemmung der Bronchokonstriktion, Bradycardie und der Spannungszunahme der Blase gegen den Logarithmus der Dosis (mol/kg) der zu untersuchenden Wirkstoffe aufgezeichnet. Die Ergebnisse werden angegeben als Mittel- werte (n=4-6). Ergebnisse siehe Tabelle I.

[1] = qualitative statement on reference substances, summing up the tests of Tabelle I-III

SMILES	Selektivität (glatte Muskulatur gegenüber Herzfrequenz oder Speichelsekretion) (in vivo)	Selektivität (glatte Muskulatur gegenüber Herzfrequenz oder Speichelsekretion) [1]
CN1C2CCC1CC(OC(=O)C(CO)c1ccccc1)C2 (racemic) [Z, Atropin]	keine Selektivität	
CCN(CC)CC1CCCCN1CC(=O)N1c2ccccc2C(=O)Nc2cccnc21 (stereo not drawn) [X, 11-[[2-[(Diethylamino)methyl]-1-piperidinyl]acetyl]-5,11-dihydro-6H-pyrido[2,3-b][1,4]benzodiazepin-6-on]		höhere Wirksamkeit auf kardiale Muskarinrezeptoren
CN1CCN(CC(=O)N2c3ccccc3C(=O)Nc3cccnc32)CC1 [Y, 5,11-Dihydro-11-[(4-methyl-1-piperazinyl)acetyl]-6H-pyrido[2,3-b][1,4]benzodiazepin-6-on]		keine Selektivität
